Patent publication US5084462A, “4-quinoline carboxylic acid derivatives useful as immunosuppressive agents” (The Du Pont Merck Pharmaceutical Company, priority 1990, dated 1992)

What was measured:
[1] = system: adjuvant-induced arthritis; test: Adjuvant-induced arthritis in rats; assay type: in vivo, Male Lewis rats; conditions: for Non-Injected Hind-Paw Volume / % Suppression: day 18; for % Suppression: Table 5, non-injected hind paw
Method: Rat adjuvant-induced arthritis represents a systemic inflammatory disease with bone and cartilage changes similar to that observed in rheumatoid arthritis, but in an accelerated time span (Pearson, Arth Rheum 7:80, 1964).
Male Lewis rats (Charles River) weighing 160-210 grams were injected subcutaneously with 0.1 ml of Freund's Complete Adjuvant containing 5 mg of M. butyricum/ml of paraffin oil (Difco Laboratories) into the plantar region of the right hind paw. Paraffin oil was injected for non-arthritic controls. Ten rats were used per group. Compounds were prepared in 0.25% Methocel® (Dow Chemical Co) with one drop of Tween® 80 per 10 ml of Methocel®. Animals were dosed every day beginning on the day of paw injection until day 18. The weight of each animal was recorded every other day beginning on the day of the paw injections. On day 18 the animals were weighed, and the non-injected hind paw volume was measured using a Ugo Basile Volume Differential Plethysmometer.

[2] = system: contact sensitivity response to 2,4-dinitrofluorobenzene (DNFB); test: Contact sensitivity response to 2,4-dinitrofluorobenzene (DNFB) in mice; assay type: in vivo, Balb/c female mice
Method: This is an antigen-specific T-cell mediated inflammatory response that represents delayed-type hypersensitivity reactions seen in both humans and other mammals.
Balb/c female mice (.perspectiveto.20g, Charles River) were sensitized on the shaved abdomen with 25 μl of 0.5% 2,4-dinitrofluorobenzene ([…], Eastman Kodak Co.) in a vehicle of 4:1 acetone:olive oil on days 0 and 1. Mice were ear challenged with 20 μl of 0.2% DNFB in a vehicle of 4:1 acetone:olive oil on day 5. A constant area of the ears was measured immediately before challenge and 24 hours later with an engineer's micrometer. Ear swelling was expressed as the difference in ear thickness before and after challenge in units of 10^-4 inches±SEM. Percent suppression was calculated as: [formula] […] Negative controls were not sensitized on days 0 and 1 but were ear challenged on day 5. Ten mice were used per group.

[3] = system: human mixed lymphocyte reaction; test: Human mixed lymphocyte reaction (3H-thymidine incorporation); assay type: cell-based; conditions: Table 4, human PBMC of two donors, 6 days
Text: Contact sensitivity to DNFB has teen extensively studied and characterized in the mouse to determine the regulatory mechanisms involved in cell mediated immune responses (Claman, et al., Immunol Rev 50:105, 1980). This is an antigen-specific T-cell mediated inflammatory response that represents delayed-type hypersensitivity reactions seen in both humans and other mammals. The primary use of the human mixed lymphocyte reaction is for the determination of transplantation compatibility between the donor (graft) and the recipient (Park and Good, p. 71. In Yunis, et al., Tissue typing and organ transplantation. 1973 Academic Press Inc., N.Y.).
Blood was obtained by venipuncture from two nonrelated human donors. Peripheral blood mononuclear cells (PBMC) were isolated from these samples by using the Leuco Prep procedure (Becton-Dickinson). PBMC were washed twice in phosphate buffered saline (without calcium and magnesium) and the separate cell isolations were adjusted to the appropriate concentrations in media (RPMI 1640) supplemented with 10% human AB serum and […] gentamicin. Cells from donor A (2×10^5) were incubated with cells from donor B (2×10^5) in 96 well round bottom microliter plates at 37° C., 5% CO2 for 6 days. Eighteen hours prior to harvesting cells from the plates, all wells were pulsed with 1 μCi of ^3 H-thymidine. Cells from the plates were harvested on day 6 and ^3 H-thymidine incorporation was determined using a scintillation counter.

## Cc1c(-c2ccc(-c3ccccc3F)cc2)nc2ccc(F)cc2c1C(=O)[O-].[Na+] [Example 2, Sodium 2-(2'-Fluoro-1,1'-biphenyl-4-yl)-6-fluoro-3-methylquinoline-4-carboxylate]
[1]; Rattus norvegicus, 432 h, Table 5 footnote, adjuvant-induced arthritis
  ED50: < 10 mg/kg
[1]; Table 5, 2.0 mg/kg daily to day 18
  Weight Gain: -1.5 ± 3.6 g
[1]; Table 5, 2.0 mg/kg daily
  Non-Injected Hind-Paw Volume: 1.62 ± 0.05 mL
[1]; Table 5, 10 mg/kg daily to day 18
  Weight Gain: 65.6 ± 5.2 g
[1]; Table 5, 10 mg/kg daily
  Non-Injected Hind-Paw Volume: 1.15 ± 0.02 mL
[1]; 2.0 mg/kg daily
  % Suppression: 34.5%
[1]; 10 mg/kg daily
  % Suppression: 96.2%
[1]; Table 5 footnote, 25.0 mg/kg daily
  Toxicity: Toxic by day 7
[2]; Mus musculus, po
  ED50: 0.95 mg/kg
[2]; Mus musculus, po, 24 h, read-out: % Suppression, Table 2, ear swelling, 0.4 mg/kg oral
  inhibition in vivo at 0.4 mg/kg: 30.2%
[2]; Mus musculus, po, 24 h, read-out: % Suppression, Table 2, ear swelling, 2.0 mg/kg oral
  inhibition in vivo at 2 mg/kg: 66.1%
[2]; Mus musculus, po, 24 h, read-out: % Suppression, Table 2, ear swelling, 10.0 mg/kg oral
  inhibition in vivo at 10 mg/kg: 92.3%
[2]; Mus musculus, po, 24 h, read-out: % Suppression, Table 2, ear swelling, 20.0 mg/kg oral
  inhibition in vivo at 20 mg/kg: 94.5%
[2]; Table 2, 0.4 mg/kg oral
  Ear Swelling (units ± SEM), increase in ear thickness from day 5 to day 6: 51.95 ± 2.33 10^-4 inches
[2]; Table 2, 2.0 mg/kg oral
  Ear Swelling (units ± SEM), increase in ear thickness from day 5 to day 6: 25.61 ± 3.39 10^-4 inches
[2]; Table 2, 10.0 mg/kg oral
  Ear Swelling (units ± SEM), increase in ear thickness from day 5 to day 6: 6.40 ± 1.09 10^-4 inches
[2]; Table 2, 20.0 mg/kg oral
  Ear Swelling (units ± SEM), increase in ear thickness from day 5 to day 6: 4.75 ± 1.20 10^-4 inches
[3]
  IC50: 25 nM
